Data as given in patent publication US10807968B2, “Substituted 2-(het)arylimidazolylcarboxyamides as pesticides” (Bayer CropScience Aktiengesellschaft, priority 2016, dated 2020).
Read-outs that look alike come from different tables or passages of the source.

Legend:
Myzus persicae [1] = test: Myzus persicae - oral test; type: in vivo; settings: after 5 days; for efficacy in % (aphids killed): 20 ppm; for pest or weed control at 20 ppm: Myzus persicae, 120 h, read-out: efficacy in % (aphids killed)
Procedure: (§1) Solvent: 100 parts by weight of acetone
Subsequently, the plates are sealed with parafilm, which a mixed population of green peach aphids (Myzus persicae) within a second microtitre plate is able to puncture and imbibe the solution through it.
After 5 days, the efficacy in % is determined. 100% means that all the aphids have been killed; 0% means that no aphids have been killed.

Myzus persicae [2] = test: Myzus persicae - spray test (bell pepper plants); type: in vivo; settings: 20 ppm, after 6 days
Procedure: Myzus persicae—Spray Test Solvent: 14 parts by weight of dimethylformamide Emulsifier: alkylaryl polyglycol ether […] To produce further test concentrations, the formulation is diluted with emulsifier-containing water. If the addition of ammonium salts or/and penetrants is required, these are each added in a concentration of 1000 ppm to the formulation solution. Bell pepper plants (Capsicum annuum) severely infested with the green peach aphid (Myzus persicae) are treated by spraying with the active compound formulation in the desired concentration.

[3] = log P determination by HPLC on reversed-phase (C18) columns, OECD Guideline 117; type: physicochemical
Method in brief: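 Reversed-phase C18 HPLC per OECD 117, LC-MS with a linear 10% to 95% acetonitrile gradient. Acidic method at pH 2.7 with 0.1% formic acid; neutral method at pH 7.8 with 0.001 M ammonium hydrogencarbonate.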

Myzus persicae [4] = test: Myzus persicae - spray test (MYZUPE), comparison with prior art; type: in vivo; settings: read-out: % efficacy dat
Procedure: Myzus persicae—Spray Test (MYZUPE)
(§2) Solvent: 78.0 parts by weight of acetone • • 1.5 parts by weight of dimethylformamide
(§3) Emulsifier: alkylaryl polyglycol ether
(§4) To produce a suitable preparation of active compound, 1 part by weight of active compound is dissolved using the specified parts by weight of solvent and made up with water containing an emulsifier concentration of 1000 ppm until the desired concentration is attained. To produce further test concentrations, the formulation is diluted with emulsifier-containing water.
Discs of Chinese cabbage leaves (Brassica pekinensis) infested by all stages of the green peach aphid (Myzus persicae) are sprayed with an active compound preparation of the desired concentration.
After the desired period of time, the efficacy in % is determined. 100% means that all the aphids have been killed; 0% means that no aphids have been killed.

Myzus persicae [5] = test: Myzus persicae - spray test (Chinese cabbage leaf discs); type: in vivo; settings: 500 g/ha, after 6 days; for pest or weed control at 500 g/ha: Myzus persicae, foliar, 144 h, read-out: efficacy in % (aphids killed)
Method in brief: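 Leaf discs of Chinese cabbage carrying all aphid stages sprayed with compound formulated in acetone/DMF and water with 1000 ppm alkylaryl polyglycol ether emulsifier. Kill rate scored after 6 days as % efficacy (100% all aphids dead, 0% none).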

Myzus persicae [6] = test: Myzus persicae - oral test (MYZUPE O), comparison with prior art; type: in vivo; settings: 120 h, read-out: % efficacy dat
Procedure: Myzus persicae—Oral Test (MYZUPE O)
as §1
To produce a suitable preparation of active compound, 1 part by weight of active compound is dissolved using the specified parts by weight of solvent and made up with water until the desired concentration is attained.
50 μl of the active compound preparation are transferred into microtitre plates and made up to a final volume of 200 μl with 150 μl of IPL41 insect medium (33%+15% sugar). Subsequently, the plates are sealed with parafilm, which a mixed population of green peach aphids (Myzus persicae) within a second microtitre plate is able to puncture and imbibe the solution through it.
After 5 or 6 days (dat), the efficacy in % is determined. 100% means that all the aphids have been killed; 0% means that no aphids have been killed.

Tetranychus urticae = Tetranychus urticae - spray test, OP-resistant; type: in vivo; settings: 500 g/ha, after 6 days, bean leaf discs
Procedure: Tetranychus Urticae—Spray Test, OP-Resistant
as §2, §3, §4
Discs of bean leaves (Phaseolus vulgaris) infested with all stages of the greenhouse red spider mite (Tetranychus urticae) are sprayed with an active compound formulation of the desired concentration.
After 6 days, the efficacy in % is determined. 100% means that all the spider mites have been killed; 0% means that no spider mites have been killed.

Meloidogyne incognita = Meloidogyne incognita test; type: in vivo; settings: 20 ppm, after 14 days, lettuce in sand
Procedure: Meloidogyne Incognita Test
Solvent: 125.0 parts by weight of acetone
To produce a suitable active compound formulation, 1 part by weight of active compound is mixed with the stated amount of solvent and the concentrate is diluted with water to the desired concentration.
Vessels are filled with sand, active compound solution, an egg/larvae suspension of the southern root-knot nematode (Meloidogyne incognita) and lettuce seeds. The lettuce seeds germinate and the plants develop. The galls develop on the roots.
After 14 days, the nematicidal efficacy in % is determined by the formation of galls. 100% means that no galls were found; 0% means that the number of galls on the treated plants corresponds to the untreated control.

[7] = 120 h, MYZUPE, 100 g ai/ha, 5 dat
[8] = reversed-phase (C18) HPLC column, pH 2.7, HPLC, acidic range pH 2.7, 0.1% aqueous formic acid/acetonitrile, read-out: logp-acidic
[9] = reversed-phase (C18) HPLC column, pH 7.8, HPLC, neutral range pH 7.8, 0.001 molar aqueous ammonium hydrogencarbonate/acetonitrile, read-out: logp-neutral
[10] = HPLC, acidic range pH 2.7, 0.1% aqueous formic acid/acetonitrile
[11] = HPLC, neutral range pH 7.8, 0.001 molar aqueous ammonium hydrogencarbonate/acetonitrile
[12] = 144 h, MYZUPE, 100 g ai/ha, 6 dat

SMILES | efficacy in % (aphids killed) (Myzus persicae [1]) [%] | kill in % (aphids killed) (Myzus persicae [2]) [%] | logp-acidic ([3]; pH 2.7) | logp-neutral ([3]; pH 7.8) | pest or weed control at 20 ppm (Myzus persicae [1]) [%] | chromatographic logP [3, 8] | chromatographic logP [3, 9] | pest or weed control at 500 g/ha (Myzus persicae [5]) [%] | Emax at 4 ppm (Myzus persicae [6]; MYZUPE O, 4 ppm, 5 dat) [%] | also measured
CN(C(=O)c1cnc(-c2cccc([S+]([O-])C(F)(F)F)c2)n1C)c1cccnc1 (stereo not shown) [Example 49] | 100 | 100 | 1.28 | 1.62 | – | – | – | – | – | –
COc1ncc(-c2ncc(C(=O)N(C)c3cccnc3)n2C)cc1C#N [Example 68] | – | – | – | – | 100 | 1.2 | 1.44 | 100 | 100 | Emax at 100 g/ha (Myzus persicae [4]; [7]): 100%
COc1cc(-c2ncc(C(=O)N(C)c3cccnc3)n2C)cc(C(F)(F)F)n1 [Example 99] | – | – | – | – | 100 | 2.05 | 2.23 | 90 | 100 | Emax at 100 g/ha (Myzus persicae [4]; [7]): 70%
CN(C(=O)c1cnc(-c2cccc(C(F)(F)C(F)(F)F)c2)n1C)c1cccnc1 [Example 57] | 100 | – | 2.09 | 2.40 | – | – | – | – | – | efficacy in % (spider mites killed) (Tetranychus urticae): 90%; efficacy in % (aphids killed) (Myzus persicae [5]): 100%
COc1cccc(-c2ncc(C(=O)N(C)c3cccnc3)n2C)n1 [Example 78] | – | – | – | – | 100 | 1.23 | 1.6 | 90 | 100 | Emax at 100 g/ha (Myzus persicae [4]; [7]): 70%
CN(C(=O)c1cnc(-c2cc3ccccc3o2)n1C)c1cccnc1 [Example 70] | – | 95 | – | – | 100 | – | – | – | – | chromatographic logP ([3]; HPLC, acidic range pH 2.7, 0.1% aqueous formic acid/acetonitrile, read-out: logp-acidic): 1.63; chromatographic logP ([3]; HPLC, neutral range pH 7.8, 0.001 molar aqueous ammonium hydrogencarbonate/acetonitrile, read-out: logp-neutral): 1.87
CN(C(=O)c1cnc(-c2cncc(C#N)c2)n1C)c1cccnc1 [Example 64] | – | – | – | – | 100 | 0.75 | 0.98 | 90 | – | Emax at 100 g/ha (Myzus persicae [4]; 120 h): 90%; Emax at 4 ppm (Myzus persicae [6]): 100%
CN(C(=O)c1cnc(-c2ccc(F)c(COC(=O)C3CC3)c2)n1C)c1cccnc1 [Example 46] | 100 | 95 | 0.73 | 1.35 | – | – | – | – | – | –
CCOC(=O)c1cc(-c2ncc(C(=O)N(C)c3cccnc3)n2C)on1 [Example 72] | 100 | – | 1.42 | 1.51 | – | – | – | – | – | efficacy in % (spider mites killed) (Tetranychus urticae): 90%
COc1ccc(-c2ncc(C(=O)N(C)c3cccnc3)n2C)c(OC)n1 [Example 81] | – | – | – | – | 100 | 0.89 | 1.69 | 100 | 70 | Emax at 100 g/ha (Myzus persicae [4]; [7]): 70%
CN(C(=O)c1cnc(-c2cccc(C(F)(F)F)c2)n1C)c1cccnc1 [Example 52] | 100 | – | 1.64 | 1.99 | – | – | – | – | – | efficacy in % (spider mites killed) (Tetranychus urticae): 90%; efficacy in % (aphids killed) (Myzus persicae [5]): 100%
CN(C(=O)c1cnc(-c2cccc3c2OCO3)n1C)c1cccnc1 [Example 83] | 100 | – | – | – | – | – | – | – | – | nematicidal efficacy in % (formation of galls) (Meloidogyne incognita): 100%; logp-acidic [3, 10]: 0.9; logp-neutral [3, 11]: 1.44; efficacy in % (aphids killed) (Myzus persicae [5]): 90%
O=C(Nc1cccnc1)c1c[nH]cn1 [Comparative Ex. 2, reference compound] | – | – | – | – | – | – | – | – | 0 | Emax at 100 g/ha (Myzus persicae [4]; [12]): 0%
CC(C)Oc1ccc(-c2ncc(C(=O)N(C)c3cccnc3)n2C)cc1C#N [Example 105] | 100 | – | 1.55 | 1.87 | – | – | – | – | – | efficacy in % (spider mites killed) (Tetranychus urticae): 100%; efficacy in % (aphids killed) (Myzus persicae [5]): 90%
COc1ncc(Cl)cc1-c1ncc(C(=O)N(C)c2cccnc2)n1C [Example 87] | – | – | – | – | 100 | 1.35 | 1.64 | 100 | 100 | Emax at 100 g/ha (Myzus persicae [4]; [7]): 90%
CCN(C(=O)c1cnc(-c2ccccn2)n1C)c1cccnc1 [Example 77] | 100 | 100 | – | – | – | – | – | – | – | logp-acidic [3, 10]: 0.97; logp-neutral [3, 11]: 1.39; efficacy in % (aphids killed) (Myzus persicae [5]): 100%
CN(C(=O)c1cnc(-c2ccc(C#N)c(C(F)(F)F)c2)n1C)c1cccnc1 [Example 16] | – | – | – | – | – | – | – | – | – | Emax at 100 g/ha (Myzus persicae [4]; 144 h): 90%; Emax at 4 ppm (Myzus persicae [6]): 100%
CN(C)c1ncc(-c2ncc(C(=O)N(C)c3cccnc3)n2C)cc1C#N [Example 65] | – | – | – | – | 100 | 1.1 | 1.5 | 100 | 100 | Emax at 100 g/ha (Myzus persicae [4]; [7]): 90%
CN(C(=O)c1cnc(-c2ccc(F)c(C(F)(F)F)c2)n1C)c1cccnc1 [Example 50] | – | 100 | – | – | 100 | 1.72 | 2.08 | – | – | –
CN(C(=O)c1cnc(-c2cc(Cl)cc(C(F)(F)F)c2)n1C)c1cccnc1 [Example 51] | 100 | 100 | 2.17 | 2.43 | – | – | – | – | – | –
CN(C(=O)c1cnc(-c2ccc(Cl)cc2Cl)n1C)c1cccnc1 [Example 12] | 100 | 100 | – | – | – | – | – | – | – | logp-acidic [3, 10]: 1.66
Cc1nc(C(=O)Nc2cccnc2)c[nH]1 [Comparative Ex. 1, reference compound] | – | – | – | – | – | – | – | – | 0 | Emax at 100 g/ha (Myzus persicae [4]; MYZUPE, 100 g ai/ha, 5/6 dat): 0%
CN(C(=O)c1cnc(-c2ncccn2)n1C)c1cccnc1 [Example 4] | – | – | – | – | 100 | 0.35 | 0.73 | 90 | 100 | Emax at 100 g/ha (Myzus persicae [4]; [12]): 90%
